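Step 1: Grow cells in 96-well plates. Step 2: Expose to compound for 48 hours at 5 concentrations. Step 3: Interpolate endpoints linearly; if unreached, use highest concentration. At the GI50, growth is halved. TGI: total growth inhibition.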
Columns and labels:
Test in all cases: NCI-60 cell line screen, 48 h
786-0 renal = test system: 786-0 renal
A498 renal = test system: A498 renal
A549 NSCLC = test system: A549 NSCLC
ACHN renal = test system: ACHN renal
BT-549 breast = test system: BT-549 breast
CAKI-1 renal = test system: CAKI-1 renal
CCRF-CEM leukemia = test system: CCRF-CEM leukemia
COLO 205 colon = test system: COLO 205 colon
DU-145 prostate = test system: DU-145 prostate
EKVX NSCLC = test system: EKVX NSCLC
HCC-2998 colon = test system: HCC-2998 colon
HCT-116 colon = test system: HCT-116 colon
HCT-15 colon = test system: HCT-15 colon
HOP-62 NSCLC = test system: HOP-62 NSCLC
HOP-92 NSCLC = test system: HOP-92 NSCLC
HS 578T breast = test system: HS 578T breast
HT29 colon = test system: HT29 colon
IGROV1 ovarian = test system: IGROV1 ovarian
K-562 leukemia = test system: K-562 leukemia
KM12 colon = test system: KM12 colon
LOX IMVI melanoma = test system: LOX IMVI melanoma
M14 melanoma = test system: M14 melanoma
MALME-3M melanoma = test system: MALME-3M melanoma
MCF7 breast = test system: MCF7 breast
MDA-MB-231 breast = test system: MDA-MB-231 breast
MDA-MB-435 = test system: MDA-MB-435
MOLT-4 leukemia = test system: MOLT-4 leukemia
NCI-H226 lung = test system: NCI-H226 lung
NCI-H23 lung = test system: NCI-H23 lung
NCI-H460 lung = test system: NCI-H460 lung
NCI-H522 lung = test system: NCI-H522 lung
NCI/ADR-RES ovarian = test system: NCI/ADR-RES ovarian
OVCAR-3 ovarian = test system: OVCAR-3 ovarian
OVCAR-4 ovarian = test system: OVCAR-4 ovarian
OVCAR-5 ovarian = test system: OVCAR-5 ovarian
OVCAR-8 ovarian = test system: OVCAR-8 ovarian
PC-3 prostate = test system: PC-3 prostate
RPMI-8226 leukemia = test system: RPMI-8226 leukemia
RXF 393 renal = test system: RXF 393 renal
SF-268 CNS = test system: SF-268 CNS
SF-295 CNS = test system: SF-295 CNS
SF-539 CNS = test system: SF-539 CNS
SK-MEL-2 melanoma = test system: SK-MEL-2 melanoma
SK-MEL-28 melanoma = test system: SK-MEL-28 melanoma
SK-MEL-5 melanoma = test system: SK-MEL-5 melanoma
SK-OV-3 ovarian = test system: SK-OV-3 ovarian
SN12C renal = test system: SN12C renal
SNB-19 CNS = test system: SNB-19 CNS
SNB-75 CNS = test system: SNB-75 CNS
SW-620 colon = test system: SW-620 colon
T-47D breast = test system: T-47D breast
TK-10 renal = test system: TK-10 renal
U251 CNS = test system: U251 CNS
UACC-257 melanoma = test system: UACC-257 melanoma
UACC-62 melanoma = test system: UACC-62 melanoma
UO-31 renal = test system: UO-31 renal
HL-60(TB) leukemia = test system: HL-60(TB) leukemia
SR leukemia = test system: SR leukemia

## C[C@@]1([C@H](OC(=O)c2cccc3ccccc23)C(N)=O)CO1
786-0 renal
  GI50: 1.84 µM
  TGI: 14.6 µM
A498 renal
  GI50: 16.2 µM
  TGI: 34 µM
A549 NSCLC
  GI50: 2.12 µM
  TGI: > 20.7 µM
ACHN renal
  GI50: 0.396 µM
  TGI: 2.2 µM
BT-549 breast
  GI50: 6.15 µM
  TGI: 21.8 µM
CAKI-1 renal
  GI50: 5.56 µM
  TGI: > 100 µM
CCRF-CEM leukemia
  GI50: 1.1 µM
  TGI: > 100 µM
COLO 205 colon
  GI50: 2.99 µM
  TGI: 14.4 µM
DU-145 prostate
  GI50: 1.61 µM
  TGI: 5.64 µM
EKVX NSCLC
  GI50: 4.53 µM
  TGI: 15.7 µM
HCC-2998 colon
  GI50: 4.51 µM
  TGI: 18.2 µM
HCT-116 colon
  GI50: 0.368 µM
  TGI: 8.43 µM
HCT-15 colon
  GI50: 1.72 µM
  TGI: 10.7 µM
HOP-62 NSCLC
  GI50: 0.978 µM
  TGI: 7.29 µM
HOP-92 NSCLC
  GI50: 2.81 µM
  TGI: 17.3 µM
HS 578T breast
  GI50: 3.59 µM
  TGI: > 24.6 µM
HT29 colon
  GI50: 1.05 µM
  TGI: > 24 µM
IGROV1 ovarian
  GI50: 0.779 µM
  TGI: 3.75 µM
K-562 leukemia
  GI50: 1.13 µM
  TGI: > 37.5 µM
KM12 colon
  GI50: 2.09 µM
  TGI: 10.8 µM
LOX IMVI melanoma
  GI50: 0.316 µM
  TGI: 1.62 µM
M14 melanoma
  GI50: 1.36 µM
  TGI: 5.31 µM
MALME-3M melanoma
  GI50: 3.18 µM
  TGI: 11.2 µM
MCF7 breast
  GI50: 1.24 µM
  TGI: > 100 µM
MDA-MB-231 breast
  GI50: 1.27 µM
  TGI: 9.12 µM
MDA-MB-435
  TGI: 1.74 µM
MOLT-4 leukemia
  GI50: 0.187 µM
  TGI: > 100 µM
NCI-H226 lung
  GI50: 1.46 µM
  TGI: 5.9 µM
NCI-H23 lung
  GI50: 1.23 µM
  TGI: 5.65 µM
NCI-H460 lung
  GI50: 5.5 µM
  TGI: > 30.1 µM
NCI-H522 lung
  TGI: 6 µM
NCI/ADR-RES ovarian
  GI50: 0.54 µM
  TGI: 4.8 µM
OVCAR-3 ovarian
  GI50: 21.6 µM
  TGI: > 100 µM
OVCAR-4 ovarian
  GI50: 4.66 µM
  TGI: > 76.6 µM
OVCAR-5 ovarian
  GI50: 3.95 µM
  TGI: 24.9 µM
OVCAR-8 ovarian
  GI50: 0.594 µM
  TGI: 22.7 µM
PC-3 prostate
  GI50: 3.2 µM
  TGI: 22.8 µM
RPMI-8226 leukemia
  GI50: 0.668 µM
  TGI: 9.04 µM
RXF 393 renal
  GI50: 4.91 µM
  TGI: > 21.3 µM
SF-268 CNS
  GI50: 4.62 µM
  TGI: > 43 µM
SF-295 CNS
  GI50: 0.427 µM
  TGI: 9.28 µM
SF-539 CNS
  GI50: 0.642 µM
  TGI: 2.33 µM
SK-MEL-2 melanoma
  GI50: 1.12 µM
  TGI: 7.09 µM
SK-MEL-28 melanoma
  GI50: 3.08 µM
  TGI: 15.2 µM
SK-MEL-5 melanoma
  GI50: 2.01 µM
  TGI: 5.75 µM
SK-OV-3 ovarian
  GI50: 6.35 µM
  TGI: 19.7 µM
SN12C renal
  GI50: 0.36 µM
  TGI: 3.95 µM
SNB-19 CNS
  GI50: 5.75 µM
  TGI: > 37.5 µM
SNB-75 CNS
  GI50: 5.9 µM
  TGI: 37.1 µM
SW-620 colon
  GI50: 1.1 µM
T-47D breast
  GI50: 5.31 µM
  TGI: 24.8 µM
TK-10 renal
  GI50: 3.6 µM
  TGI: 14.8 µM
U251 CNS
  GI50: 0.997 µM
  TGI: 7.89 µM
UACC-257 melanoma
  GI50: 4.65 µM
  TGI: > 49 µM
UACC-62 melanoma
  GI50: 0.452 µM
  TGI: 2.24 µM
UO-31 renal
  GI50: 2.25 µM
  TGI: 8.8 µM

## Cc1c(C)n(CC(O)CNC2CCCCC2C)c2ccccc12 (stereo unspecified)
786-0 renal
  GI50: 12.5 µM
  TGI: 25.6 µM
A498 renal
  GI50: 4.99 µM
  TGI: 19.6 µM
A549 NSCLC
  GI50: 16.9 µM
  TGI: 32.8 µM
ACHN renal
  GI50: 13.3 µM
  TGI: 26 µM
BT-549 breast
  GI50: 16 µM
  TGI: 30.1 µM
CAKI-1 renal
  GI50: 12.4 µM
  TGI: 24.9 µM
COLO 205 colon
  GI50: 2.21 µM
  TGI: 4.82 µM
DU-145 prostate
  GI50: 17.8 µM
  TGI: 31.6 µM
HCC-2998 colon
  GI50: 3.03 µM
  TGI: 10.5 µM
HCT-116 colon
  GI50: 12 µM
  TGI: 24.4 µM
HCT-15 colon
  GI50: 12.6 µM
  TGI: 26.5 µM
HL-60(TB) leukemia
  GI50: 19.2 µM
  TGI: 42.7 µM
HOP-62 NSCLC
  GI50: 16.6 µM
  TGI: 32 µM
HOP-92 NSCLC
  GI50: 4.76 µM
  TGI: 17.8 µM
HS 578T breast
  GI50: 16.3 µM
  TGI: 43 µM
IGROV1 ovarian
  GI50: 16 µM
  TGI: 31.9 µM
K-562 leukemia
  GI50: 3.93 µM
  TGI: 20.1 µM
KM12 colon
  GI50: 15.3 µM
  TGI: 28.9 µM
LOX IMVI melanoma
  GI50: 14.8 µM
  TGI: 28 µM
MALME-3M melanoma
  GI50: 14.2 µM
  TGI: 30.1 µM
MCF7 breast
  GI50: 13.2 µM
  TGI: 28.3 µM
MDA-MB-231 breast
  GI50: 6.44 µM
  TGI: 20.5 µM
MDA-MB-435
  GI50: 12.8 µM
  TGI: 25.4 µM
MOLT-4 leukemia
  GI50: 15.3 µM
  TGI: 41.2 µM
NCI-H226 lung
  GI50: 17.2 µM
  TGI: 35.9 µM
NCI-H23 lung
  GI50: 16.8 µM
  TGI: 32.8 µM
NCI-H460 lung
  GI50: 15.7 µM
  TGI: 31 µM
NCI/ADR-RES ovarian
  GI50: 15.5 µM
  TGI: 29.8 µM
OVCAR-3 ovarian
  GI50: 16.4 µM
  TGI: 29.9 µM
OVCAR-4 ovarian
  GI50: 12 µM
  TGI: 24.4 µM
OVCAR-5 ovarian
  GI50: 12.9 µM
  TGI: 25.7 µM
OVCAR-8 ovarian
  GI50: 16.2 µM
  TGI: 31.2 µM
PC-3 prostate
  GI50: 13.4 µM
  TGI: 26.2 µM
RPMI-8226 leukemia
  GI50: 9.48 µM
  TGI: 28.6 µM
RXF 393 renal
  GI50: 10.5 µM
  TGI: 23 µM
SF-268 CNS
  GI50: 15.4 µM
  TGI: 30.2 µM
SF-295 CNS
  GI50: 14.1 µM
  TGI: 28.2 µM
SF-539 CNS
  GI50: 15.8 µM
  TGI: 30.4 µM
SK-MEL-28 melanoma
  GI50: 14 µM
  TGI: 27.4 µM
SK-MEL-5 melanoma
  GI50: 12.6 µM
  TGI: 25.4 µM
SK-OV-3 ovarian
  GI50: 18.2 µM
  TGI: 32.9 µM
SN12C renal
  GI50: 16 µM
  TGI: 30.5 µM
SNB-19 CNS
  GI50: 15.5 µM
  TGI: 30.9 µM
SNB-75 CNS
  GI50: 10.1 µM
  TGI: 21.7 µM
SR leukemia
  GI50: 12.4 µM
  TGI: 34.1 µM
SW-620 colon
  GI50: 17.9 µM
  TGI: 35 µM
T-47D breast
  GI50: 12.8 µM
  TGI: 29.8 µM
U251 CNS
  GI50: 13.8 µM
  TGI: 26.7 µM
UACC-257 melanoma
  GI50: 16.2 µM
  TGI: 31 µM
UACC-62 melanoma
  GI50: 14.8 µM
  TGI: 29 µM
UO-31 renal
  GI50: 10.8 µM
  TGI: 23.4 µM
